# Measurements published in ChEMBL document CHEMBL1201862, “PubChem BioAssay data set” (2004).
#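 Briefly, cells in 96-well plates were exposed to five compound concentrations for 48 h, and endpoints were estimated by linear interpolation. At the GI50, growth is halved.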 Active and inactive are the calls of the source. Cut-off read from the data, not from the text of the source: active = GI50 up to about 1.1 µM and inactive = higher.
# What was measured:
# Experiment in all cases: NCI anticancer screen, dose series, 48 h
# 786-0 = tested on: 786-0
# COLO 205 = tested on: COLO 205
# HCC 2998 = tested on: HCC 2998
# HCT-15 = tested on: HCT-15
# HL-60 = tested on: HL-60
# HT-29 = tested on: HT-29
# IGROV-1 = tested on: IGROV-1
# LOX IMVI = tested on: LOX IMVI
# MCF7 = tested on: MCF7
# Malme-3M = tested on: Malme-3M
# NCI-H226 = tested on: NCI-H226
# NCI/ADR-RES = tested on: NCI/ADR-RES
# SF-295 = tested on: SF-295
# SK-MEL-5 = tested on: SK-MEL-5
# SK-OV-3 = tested on: SK-OV-3
# SN12C = tested on: SN12C
# SNB-75 = tested on: SNB-75
# TK-10 = tested on: TK-10
# U-251 = tested on: U-251
# UACC-62 = tested on: UACC-62
Compound,GI50 (786-0),GI50 (COLO 205),GI50 (HCC 2998),GI50 (HCT-15),GI50 (HL-60),GI50 (HT-29),GI50 (IGROV-1),GI50 (LOX IMVI),GI50 (MCF7),GI50 (Malme-3M),GI50 (NCI-H226),GI50 (NCI/ADR-RES),GI50 (SF-295),GI50 (SK-MEL-5),GI50 (SK-OV-3),GI50 (SN12C),GI50 (SNB-75),GI50 (TK-10),GI50 (U-251),GI50 (UACC-62)
COc1cccc(C(=O)C#Cc2cnc(OC)nc2OC)c1,1.83 µM (inactive),1.77 µM (inactive),6.43 µM (inactive),0.2 µM,0.682 µM (active),1.09 µM (active),0.653 µM (active),0.119 µM (active),0.126 µM (active),1.38 µM (inactive),1.11 µM (active),1.85 µM (inactive),14.2 µM (inactive),1.24 µM (inactive),18.1 µM (inactive),0.753 µM (active),2.26 µM (inactive),1.43 µM (inactive),2.84 µM (inactive),1.36 µM (inactive)
S=c1c2nc[nH]c2ncn1CCSC1=NC=NC2=NC=NC21 (centres undefined),71 µM (inactive),> 100 µM (inactive),> 100 µM (inactive),> 100 µM,> 92 µM (inactive),> 100 µM (inactive),> 100 µM (inactive),44.7 µM (inactive),> 100 µM (inactive),> 100 µM (inactive),> 100 µM (inactive),> 100 µM (inactive),> 100 µM (inactive),> 100 µM (inactive),52.2 µM (inactive),> 100 µM (inactive),> 66.1 µM (inactive),> 76.2 µM (inactive),> 100 µM (inactive),79.8 µM (inactive)
C[C@]12CCC(=O)C=C1CC[C@@H]1[C@@H]2[C@@H](O)C[C@@]2(C)[C@H]1CC[C@]2(O)C(=O)COC(=O)C1CCCC1,> 100 µM (inactive),> 100 µM (inactive),> 100 µM (inactive),> 100 µM,> 100 µM (inactive),67.8 µM (inactive),> 100 µM (inactive),> 100 µM (inactive),> 100 µM (inactive),> 100 µM (inactive),> 100 µM (inactive),> 100 µM (inactive),> 100 µM (inactive),> 100 µM (inactive),> 100 µM (inactive),> 100 µM (inactive),> 100 µM (inactive),> 100 µM (inactive),> 100 µM (inactive),> 100 µM (inactive)
O=C1c2ccccc2C(=O)c2c1sc1nc3ccccc3n21,2.15 µM (inactive),1.8 µM (inactive),1.73 µM (inactive),1.36 µM,3.8 µM (inactive),3.9 µM (inactive),2.44 µM (inactive),0.893 µM (active),1.86 µM (inactive),0.439 µM (active),5.68 µM (inactive),1.77 µM (inactive),1.66 µM (inactive),16.5 µM (inactive),6.87 µM (inactive),1.52 µM (inactive),13.1 µM (inactive),4.19 µM (inactive),3.52 µM (inactive),1.87 µM (inactive)
CC1=NN(C(=O)c2ccccc2O)C(=O)/C1=C/c1ccc(O)cc1,0.323 µM (active),34.9 µM (inactive),3.22 µM (inactive),0.485 µM,1.02 µM (active),26.9 µM (inactive),0.14 µM (active),0.468 µM (active),0.382 µM (active),0.431 µM (active),0.475 µM (active),0.519 µM (active),0.379 µM (active),0.301 µM (active),0.26 µM (active),1.62 µM (inactive),0.23 µM (active),13 µM (inactive),0.205 µM (active),0.34 µM (active)
Fc1ccc(C(OCCN2CCN(CCCc3ccccc3)CC2)c2ccc(F)cc2)cc1,,2.75 µM (inactive),3.79 µM (inactive),3.45 µM,4.2 µM (inactive),3.13 µM (inactive),10.4 µM (inactive),4.65 µM (inactive),4.59 µM (inactive),5.31 µM (inactive),3.75 µM (inactive),3.13 µM (inactive),4.39 µM (inactive),3.34 µM (inactive),6.04 µM (inactive),4.11 µM (inactive),4.8 µM (inactive),5.77 µM (inactive),3.65 µM (inactive),9.08 µM (inactive)
CC(C)C1(O)C(=O)N(c2c(F)c(F)c(F)c(F)c2F)C(=S)N1CCSc1ccccc1 (centres undefined),19.1 µM (inactive),17.9 µM (inactive),20.6 µM (inactive),17.9 µM,14.3 µM (inactive),18.4 µM (inactive),16.4 µM (inactive),16.5 µM (inactive),17.2 µM (inactive),17.3 µM (inactive),20.7 µM (inactive),16.3 µM (inactive),17.3 µM (inactive),17.4 µM (inactive),17.3 µM (inactive),15.3 µM (inactive),16.7 µM (inactive),14.7 µM (inactive),18.2 µM (inactive),15.8 µM (inactive)
